According to ChEMBL document CHEMBL3425487, “Synthesis of new thiazolylmethoxyphenyl pyrimidines and antihyperglycemic evaluation of the pyrimidines, analogues isoxazolines and pyrazolines” (2015):

Test system: Rattus norvegicus
Experiment: Antihyperglycemic activity in normoglycemic male albino Sprague-Dawley rat assessed as improvement in sucrose tolerance at 100 mg/kg, po by Oral sucrose tolerance test
Type: functional

In order of falling Activity:
1. CN(C)C(=N)NC(=N)N [METFORMIN]  14.1%
2. Fc1ccc(C2=NNC(c3ccc(OCc4csc(-c5ccccc5)n4)cc3)C2)cc1 (stereo not drawn)  10.4%
3. COc1ccc(C2=NOC(c3ccc(OCc4csc(-c5ccccc5)n4)cc3)C2)cc1 (stereo not drawn)  8.37%
4. Fc1ccc(C2=CC(c3ccc(OCc4csc(-c5ccccc5)n4)cc3)NC(=S)N2)cc1 (stereo not drawn)  8.22%
5. c1ccc(C2=NNC(c3ccc(OCc4csc(-c5ccccc5)n4)cc3)C2)cc1 (stereo not drawn)  7.42%
6. O=[N+]([O-])c1ccc(C2=CC(c3ccc(OCc4csc(-c5ccccc5)n4)cc3)NC(=S)N2)cc1 (stereo not drawn)  7.04%
7. Fc1ccc(C2=NOC(c3ccc(OCc4csc(-c5ccccc5)n4)cc3)C2)cc1 (stereo not drawn)  4.88%
8. c1ccc(C2=NOC(c3ccc(OCc4csc(-c5ccccc5)n4)cc3)C2)cc1 (stereo not drawn)  2.73%
9. O=[N+]([O-])c1ccc(C2=NNC(c3ccc(OCc4csc(-c5ccccc5)n4)cc3)C2)cc1 (stereo not drawn)  2.47%
10. COc1ccc(C2=CC(c3ccc(OCc4csc(-c5ccccc5)n4)cc3)NC(=S)N2)cc1 (stereo not drawn)  1.05%
11. O=[N+]([O-])c1ccc(C2=NOC(c3ccc(OCc4csc(-c5ccccc5)n4)cc3)C2)cc1 (stereo not drawn)  0.91%
12. COc1ccc(C2=NNC(c3ccc(OCc4csc(-c5ccccc5)n4)cc3)C2)cc1 (stereo not drawn)  0.85%
13. S=C1NC(c2ccccc2)=CC(c2ccc(OCc3csc(-c4ccccc4)n3)cc2)N1 (stereo not drawn)  0.07%
